SMILES strings stand for the structures. Like-named read-outs stand apart in the source and are kept apart here.

Assay [1] deals with T1, ACKR3 (Homo sapiens, UniProt P25106).
T1 construct: expressed in transfected cells; host or cells: HEK293T
Briefly: BRET β-arrestin1 recruitment to ACKR3 in HEK293T cells. The format is cell-based. The following applies: for EC50: * VUF16840 as inverse agonist, read-out: β-arrestin1 BRET pEC50 (converted); for IC50: read-out: β-arrestin1 BRET, Inhibition by VUF16840 (pIC50) (converted). On the procedure:
(§1) For bioluminescence resonance energy transfer (BRET) experiments, several BRET acceptor constructs were used that consist of the pcDEF3 vector with either GRK2 (NCBI: NM_174710.2), β-arrestin1 (NCBI: NM_174243.3), or β-arrestin2 (NCBI: XM_005220181.4) fused at the C-terminus with a SpeI/NotI linker to mVenus (NCBI: KP666136.1), as previously described.[34]
(§2) For 1·10^6 HEK293T cells, a transfection mix consisting of 2 μg plasmid DNA, 12 μg linear PEI in a total volume of 200 μL 150 mM NaCl was made and thoroughly vortexed. The transfection mix was incubated for 15 minutes and consequently added to a cell suspension with a final concentration of 3·10^5 cells/mL. For functional studies this cell suspension was immediately transferred to a poly-L-lysine-coated white 96-well plate, with 3·10^4 cells per well. […] For BRET-based membrane localization experiments, the 2 μg plasmid DNA consisted of ACKR3-NL (0.05 μg), mVenus-CAAX (0.25 μg), and pcDEF3 vector DNA without insert (1.7 μg).
Mean pIC50 values were determined by averaging fitted values from individual experiments. Graphs depict the pooled data of all experiments. Similarly, sigmoidal, ligand-induced concentration-dependent activation or inhibition of the proximity between ACKR3 and the protein of interest was analyzed using GraphPad Prism 8, by fitting a 3-parameter concentration-response model to the data, to determine pEC50/pIC50 values. Mean pEC50 values and pIC50 values were determined by averaging fitted values from individual experiments. Graphs depict the pooled data of all experiments, for which values are normalized, per experiment, to the fold difference compared with basal signal.
HEK293T cells were stimulated with increasing concentrations of VUF15485 or VUF16840 only (A–D), or increasing concentrations of VUF16840 in the presence of 100 nM VUF15485 (E–H). The resulting proximity between ACKR3 and β-arrestin1 (A, E), GRK2 (B, F), or Rab5a (C, G) was determined by bioluminescence resonance energy transfer. Furthermore, an interaction between clathrin A and β-arrestin2 was measured by NLuc complementation, as was determined by quantifying the relative light units (D, H). Depicted data is normalized as fold-basal and represents the mean ± SD of N experiments with triplicate measurements per experiment. N is specified in Supplemental Table 1.

Assay [2] concerns the target T1, ACKR3. Briefly: BRET GRK2 recruitment to ACKR3 in HEK293T cells. It is filed as cell-based. As to conditions: for EC50: * VUF16840 as inverse agonist, read-out: GRK2 BRET pEC50 (converted). On the procedure:
as §1, §2
(§3) The sigmoidal concentration-dependent displacement of binding of the probes [^3H]VUF15485 and CXCL12-A647 by unlabeled ligands were analyzed using GraphPad Prism 8, by fitting a one-site binding model to the data, to determine the pIC50. Mean pIC50 values were determined by averaging fitted values from individual experiments. Graphs depict the pooled data of all experiments. Similarly, sigmoidal, ligand-induced concentration-dependent activation or inhibition of the proximity between ACKR3 and the protein of interest was analyzed using GraphPad Prism 8, by fitting a 3-parameter concentration-response model to the data, to determine pEC50/pIC50 values. Mean pEC50 values and pIC50 values were determined by averaging fitted values from individual experiments. […]
Fig. 5 Inhibition of both constitutive as well as agonist-induced ACKR3 activity by VUF16840. […] The resulting proximity between ACKR3 and β-arrestin1 (A, E), GRK2 (B, F), or Rab5a (C, G) was determined by bioluminescence resonance energy transfer. […]
(In general: BRET reads energy transfer from a luciferase to a nearby fluorophore.)

The target of assay [3] is T2, HA-hACKR3 (Homo sapiens, UniProt P25106).
T2 construct: expressed in transfected cells; host or cells: HEK293T (membranes, transient expression)
T2 sequence (P25106 whole entry): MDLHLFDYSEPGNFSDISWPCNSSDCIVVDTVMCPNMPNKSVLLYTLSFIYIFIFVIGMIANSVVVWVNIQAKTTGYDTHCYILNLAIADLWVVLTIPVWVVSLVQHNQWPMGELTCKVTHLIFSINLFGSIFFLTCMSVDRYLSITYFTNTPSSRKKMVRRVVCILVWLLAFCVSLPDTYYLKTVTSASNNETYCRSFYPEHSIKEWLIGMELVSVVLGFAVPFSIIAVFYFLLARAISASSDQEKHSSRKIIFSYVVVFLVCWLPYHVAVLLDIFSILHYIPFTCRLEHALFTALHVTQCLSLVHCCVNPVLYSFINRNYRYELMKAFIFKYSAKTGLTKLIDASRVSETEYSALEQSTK
Briefly: [3H]VUF15485 radioligand binding assay. The following applies: 2 nM [3H]VUF15485, HEK293T membranes. On the procedure:
Membranes of HEK293T cells that transiently expressed the NLuc-hACKR3 or HA-hACKR3 were produced as previously described.[23] Briefly, 2 million HEK293T cells were seeded per […] and were transfected the following day using a DNA/PEI-mix containing 0.25 μg plasmid DNA encoding for the ACKR3, 4.75 μg pcDEF3 plasmid DNA and 30 μg linear PEI. Two days after transfection, cells were collected in PBS (137 mM NaCl, 2.57 mM KCl, 1.5 mM KH2PO4, 8 mM Na2HPO4) and pelleted by centrifugation. Cell pellets were resuspended in ice-cold membrane buffer (15 mM Tris, 0.3 mM EDTA, 2 mM MgCl2, pH 7.4 at 4 °C) and dounce-homogenized on ice by plunging the pestle 10 times with 1500 rpm. Cell homogenates were subsequently subjected to 2 freeze-thaw cycles using liquid nitrogen. Next, the cell homogenates were centrifuged at 40,000 g and pellets were resuspended in Tris-sucrose buffer (20 mM Tris, 250 mM sucrose, pH 7.4 at 4 °C). […]
Radioligand binding studies were performed as described earlier.[23] […] Filter-bound [^3H]VUF15485 was measured by adding 25 μL MicroScint-O per well to the dried GF/C-plate and radioactivity was quantified using the Wallac Microbeta counter (Perkin Elmer).
as §3, with “Graphs depict the pooled data of all experiments.” left out
The ACKR3 ligand VUF16840 was evaluated for its binding to hACKR3 in different competition binding assay formats (Fig. 1). […]

Setting [4] is: read-out: IC50, displacement of [3H]VUF15485 binding from HA-hACKR3.

T1 sequence (P25106 whole entry): as above

`COc1ccccc1CCNC(=O)C1CN(C2CCCCC2)CCC1NC(=O)c1cc(-c2ccc(F)cc2F)on1` (centres unmarked) [VUF16840]: the results for the EC50 in assay [1] and in assay [2] were 5.01 nM and 3.16 nM, respectively. Besides, the IC50 in assay [1] (versus 100 nM CXCL11) is 2.51 nM; in assay [1] (versus 100 nM CXCL12), 5.01 nM; in assay [1] (versus 100 nM VUF15485), 2 nM; in assay [2] (versus 100 nM VUF15485, read-out: GRK2 BRET, Inhibition by VUF16840 (pIC50) (converted)), 3.98 nM; in assay [3] (mean ± SD, read-out: pIC50, displacement of [3H]VUF15485 binding from HA-hACKR3 (converted)), 0.794 nM; in assay [3] (setting [4]), 0.7 nM.

Consider `COc1cc(C(=O)N(CCC2CCCN2C)CC(C)=Cc2ccccc2F)cc(OC)c1OC` (centres unmarked) [VUF15485, reference compound], for which the EC50 in assay [1] was 39.8 nM; in assay [2], 25.1 nM. Moreover, the IC50 in assay [3] (setting [4]) was found to be 20 nM.
